Read-outs that look alike come from different tables or passages of the source.
Tests used:
[1] = system: pAKT in PC-3 cells
Description: BPH-1 or PC-3 cells were cultured in 10 cm cell culture dishes or 6-well culture plates until they reached 80% confluency and were lifter using TE buffer (10 mM Tris/HCl, 1 mM EDTA, pH8). After 24 h treatment with SF cells were washed three times with cold PBS and treated with RIPA buffer for 2 min on ice, followed by centrifugation at 13 000 g at 4° C. for 10 min and the supernatant collected for western blotting. Protein was separated on NuPage 10% polyacrylamide gels by electrophoresis and transferred to nitrocellulose membranes. Membranes were probed with primary antibodies obtained from Cell Signalling© at a dilution of 1:1000: Phospho-Akt (Ser^473) Rabbit mAb (#4060 L) and AKT (pan) Rabbit rnAb (#4685). GAPDH was used as a loading control for all blots. Proteins were visualised with SuperSignal West Chemiluminescence kit.

[2] = biological target: T1, recombinant human epidermal growth factor (EGF) (Homo sapiens, UniProt P01133); assay: Incubation of peptides with isothiocyanates, LC-MS/MS; assay type: binding; details: PBS pH 7.4 at 37° C., 0.5 to 24 hours
T1 construct: addition of SF to the N-terminal asparagines residue (m/z 309) of EGF; purchased R&D Systems
Description: (§1) Incubations of SF or IB with bovine insulin (P01308, Sigma-Aldrich), recombinant human epidermal growth factor (EGF, P01133, R&D Systems, http://www.rndsystems.com/) and recombinant human transforming growth factor beta 1 (TGFβ1, P01137, R&D Systems) were performed in sodium phosphate-buffered saline solution (pH 7.4) or human blood plasma at 37° C. for 0.5-24 h. Plasma was pre-treated by ultrafiltration to remove high molecular weight proteins (Microcon Ultracel YM-30 filter, MWCO 30,000). Samples were either analyzed directly by LC-MS/MS or by LC-MS/MS analysis of tryptic digests of gel electrophoresis bands.
(§2) The LC system used was a Shimadzu series LOAD VP (Shimadzu). The column was an ACE 300 C18, 150×2.1 mm (5 μm particle size) used at 40° C. Mobile phase A was 0.1% formic acid in water, mobile phase B, 0.1% formic acid in acetonitrile and the flow rate was 0.25 ml/min. A linear gradient was used from 25% B to 35% B over 0 to 5 min, then a further gradient from 35% B to 99% B over 6 min followed by 99% B for 4 min. The column was re-equilibrated for a total of 3 min. The injection volume was between 5-20 μl. […] The peak-width was set on Q1 and Q3 at 1.0 Th (measured at half height) for all MS and MS/MS experiments. […]

[3] = system: EGF receptor phosphorylation in BPH cells; details: EGF pre-incubated with ITC, compared to EGF alone
[4] = biological target: T2, bovine insulin (Bos taurus, UniProt P01317); assay: Incubation of peptides with isothiocyanates, LC-MS/MS; assay type: binding; details: PBS pH 7.4 at 37° C., 0.5 to 24 hours
T2 construct: m/z 325.2 corresponds to Phe-SF, the N-terminal amino acid of insulin B chain; m/z 235.0 corresponds to Gly-SF, the N-terminal amino acid of insulin A chain; purchased Sigma-Aldrich
Description: as §1, §2

[5] = system: TGFβ1/Smad mediated transcription
Description: Cells were seeded into complete growth medium in a six-well tissue culture dish for 24 h, after which the medium was replaced with low serum medium (0.5% FCS) containing one of three treatments: (1) TGFβ1 (to achieve a final concentration of 2 ng ml^−1) in PBS buffer, (2) TGFβ1^+10 mM DTT in PBS buffer (3) TGFβ1^+2 μM SF in PBS buffer. To simulate SF pharmacokinetics, all test samples were incubated at 37° C. for 30 minutes prior to dialysis, performed in PBS buffer for 4 hours using Slide-A-Lyzer Dialysis Cassettes MWCO 3.5K (PIERCE). Dialysis reduced SF concentration to 34 nM. As additional controls, cells were treated with PBS without TGFβ1 and PBS with SF (34 nM). The luciferase activity was determined 16 h following treatment using the Luciferase Reporter Gene assay (Roche Applied Science) in a Perkin Elmer Wallac Victor 2 1420 multilabel counter plate reader (Perkin Elmer). Briefly, cells were washed twice with PBS and lysed in cell lysis buffer supplied with the assay. Chemiluminescence was immediately quantified following the addition of luciferase assay substrate. Luciferase values were normalized to protein concentration quantified using the BCA assay (Sigma-Aldrich). The experiment was repeated four times, with three replicates of each treatment per experiment. Statistical analysis was performed using 1-way ANOVA with the statistical software, R [24].

[6] = biological target: T3, recombinant human transforming growth factor beta 1 (TGFβ1) (Homo sapiens, UniProt P01137); assay: Incubation of peptides with isothiocyanates, LC-MS/MS; assay type: binding; details: PBS pH 7.4 at 37° C., 0.5 to 24 hours
T3 construct: TGFβ1 was robustly identified in bands of 25 kDa corresponding to the active dimer; The N-terminal peptide […] was identified; purchased R&D Systems
T3 sequence (P01137 279-390 limits assumed): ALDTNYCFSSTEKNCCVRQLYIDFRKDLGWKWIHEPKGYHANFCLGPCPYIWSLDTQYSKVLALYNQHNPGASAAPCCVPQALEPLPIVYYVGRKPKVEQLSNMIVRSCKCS
Description: as §1, §2

T2 sequence (P01317 25-54 limits assumed): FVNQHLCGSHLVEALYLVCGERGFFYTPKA
T2 sequence (P01317 85-105 limits assumed): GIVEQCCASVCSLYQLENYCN
T1 sequence (P01133 971-1023 limits assumed): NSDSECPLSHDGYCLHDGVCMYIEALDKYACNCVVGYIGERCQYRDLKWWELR

Smad-mediated transcription (luciferase activity) ([5]; TGFβ1 pre-incubated with SF (2 μM) for 30 minutes followed by dialysis, compared to TGFβ1 alone)	Smad-mediated transcription (luciferase activity) ([5]; residual SF (34 nM) alone, without TGFβ1)	SMILES	pAKT expression ([1]; PC-3 cells + FCS, 2 μM SF, one hour)	pAKT expression ([1]; PC-3 cells + FCS, 10 μM SF)	pAKT expression ([1]; PC-3 cells in culture medium without FCS)	pAKT expression ([1]; PC-3 cells, 0.5 μM SF (data not shown))	conjugate of peptide and ITC (EGF) [2]	amount of phosphorylated EGF receptor [3]	conjugate of peptide and ITC (insulin) [4]	conjugate of peptide and ITC (TGFβ1) [6]
increase in Smad-mediated transcription	did not result in enhanced transcription	C[S+]([O-])CCCCN=C=S (stereo not shown) [SF, sulforaphane]	suppresses pAKT	variable response	no further inhibition	suppression	formation of a covalently bound conjugate	reduces the amount of phosphorylated receptor	formation of a covalently bound conjugate	formation of a covalently bound conjugate
		C[S+]([O-])CCCN=C=S (stereo not shown) [IB, iberin]					formation of a covalently bound conjugate		formation of a covalently bound conjugate	formation of a covalently bound conjugate

From patent publication US9023811B2, “Method for treating a cardiovascular disease, hypercholesterolemia or hypertension or improving serum cholesterol levels by administering broccoli with a high level of glusosinolates” (Plant Bioscience Limited, priority 2009, dated 2015)
